Entries after “also recorded” stand apart in the source; their conditions may differ. Where two headings read alike, the source gives them in different places.
Assays:
[1] = test system: HSV; assay: HSV-induced plaques in Vero versus MDBK cells; assay type: cell-based
Source text: Of the counts that are metabolized in two cells lines, the relative amounts in the major classes of phosphatides that are formed, phosphatidylcholine and phosphatidylethanolamine, are not different in the two cell lines.

[2] = test system: HSV-1; assay: HSV-1 plaque assay in Vero cells, time of drug incubation and removal; assay type: cell-based; conditions: 9 mM
Procedure: (A) Vero cells were plated and incubated with 9 mM n-docosanol, the corresponding control vehicle or no addition for 0, 3, 6, or 24 h prior to the addition of HSV-1. The viral plaque assay was continued and the number of p.f.u. determined. The data are expressed as % inhibition compared to wells receiving no treatment. (B) Vero cells were plated, n-docosanol or the corresponding control vehicle was added and cells were incubated at 37° C. in 10% humidified CO2. After 21, 24, 25, 26, and 27 h (6, 3, 2, 1, and 0 h before the addition of HSV-1), media containing drug was removed and the cells were washed with media. After a total of 27 h, HSV-1 was added to all wells. Two hours later virus-containing media was removed and replaced with fresh media lacking virus or drugs. The cultures were incubated and processed for determination of the number of HSV-induced plaques as in (A). […]
The cultures were incubated for an additional 42-44 h, washed once with fresh medium, stained and fixed (the staining/fixative consists of 1.25 mg/ml of carbol-fuchsin plus 2.5 mg/ml of methylene blue in methanol) and then scored for HSV-induced plaques using a dissecting microscope (10× magnification). […]

[3] = test system: lipid-enveloped viruses; assay: Spectrum of antiviral activity against lipid-enveloped viruses in vitro; assay type: cell-based
[4] = test system: Friend Virus; assay: Friend Virus replication in primary embryo fibroblast cultures; assay type: cell-based
[5] = test system: HSV-2 (333); assay: Entry of HSV-2 (333) into CHO-IEβ8 cells (beta-galactosidase, OD600); assay type: cell-based; conditions: for inhibition at 30000 µM: Human alphaherpesvirus 2, 30 mM
Procedure: CHO-IEβ8 cells were seeded into 24-well plates. After cell attachment, heparin, n-docosanol-vehicle, vehicle alone, or no agent (control) was added. Five to six hours after infection, the cells were processed, X-gal was added, and the absorbance at 600 nm was determined.
Twenty-four hours before infection, cultured cells were seeded into 24-well (16-mm) plates at 2.5×10^6 cells/well in 0.5 ml cDMEM supplemented with 10% fetal bovine serum (FES). After cell attachment (4-6 h later) heparin, n-docosanol-surfactant, or surfactant alone was added to the cells in 0.5 ml DMEM/10% FES. The agents were dissolved in the medium at two times the desired final concentration. For infection, 0.7 ml of medium was removed from each well and 25 μl of virus suspension was added to the remaining 0.3 ml to give a virus dose of at least 20 p.f.u./cell The plates were rocked at 37° C. for 3 h and then put in a 37° C. CO2 incubator for another 2-3 h.
At 5-6 h after infection, the cells were fixed with PES containing 2% formaldehyde and 0.2% glutaraldehyde, washed, then permeabilized with 0.02% NP-40, 0.01% deoxycholate and 2 mM MgCl2. After washing again, 5-bromo-4-chloro-3indolyl-β-galactopyranoside (X-gal) was added for development of blue product. The substrate was removed and replaced with 50% glycerol. Plates were photographed. To quantify the amount of color in each well the glycerol was removed from all wells that were then washed 3× with distilled H2O. DMSO (0.6 ml) was added to solubilize the dye and, after transferring 100 μl of each sample well from the 24-well plate to a 96-well plate, the OD600 was recorded using a 96-well plate reader.
n-Docosanol inhibits HSV-2(333) infectivity of CHO-IEβ8 cells. To further narrow the point of inhibition of viral entry in n-docosanol-treated cells, the effects of the drug on entry of HSV-2 into CHO-IEβ8 cells selected by transfection of CHO cells with a plasmid carrying a Pur selectable marker and lacZ under control of the HSV-1 ICP4 promoter was investigated. In this cell line, β-gal expression is induced upon entry of HSV virion proteins into the cell, an event which occurs immediately upon viral entry into the cellular cytoplasm and which is not dependent on virion transport to the nucleus.

[6] = test system: wild-type HSV-2; assay: Plaque formation by wild-type HSV-2 in Vero cells; assay type: cell-based; conditions: FIG. 7, Panel A
Procedure: FIG. 7 depicts data showing that n-docosanol inhibits acyclovir-resistant HSV-2. Vero cells were cultured in 35-mm wells (6×10^5 cells per well) in medium alone (=none) or in the presence of the indicated concentration of acyclovir, n-docosanol-Pluronic F-68 suspension or control suspension (Pluronic F-68 only). The cultures were inoculated 24 hours later with 150 PFU of either wild-type HSV-2 or an acyclovir-resistant laboratory isolate from the wild-type HSV-2 that was plaque purified and passaged in 20 μg/ml acyclovir 44 hours later, the plates were incubated, fixed, stained, and scored for numbers of plaques. The data presented are means of plaques scored from duplicate cultures. The percent inhibition observed in cultures treated with acyclovir or n-docosanol relative to untreated control cultures is denoted in parentheses.

[7] = Water solubility; assay type: physicochemical
[8] = test system: HSV-I; assay: Binding of [3H]HSV-I to Vero cells; assay type: cell-based; conditions: virus at 2 p.f.u./cell; n-docosanol 15 mM
Source text: Attachment of HSV-I to specific cell surface receptors is unaffected in n-docosanol-treated cells. Previous studies have verified that attachment of HSV-1 to specific cell surface receptors is unaffected in n-docosanol-treated cells. […] Heparin inhibited this interaction 96%.

SMILES: CCCCCCCCCCCCCCCCCCCCCCO [n-docosanol]
- effectiveness in inhibiting HSV-induced plaques, Vero versus MDBK cells [1]: 3-4 fold
- inhibition of plaque formation ([2]; 6-h interval between drug removal and HSV-I addition): no inhibition of HSV-I plaque formation was observed
- inhibition at 9000 µM ([2]; Human alphaherpesvirus 1, Vero, added simultaneously with, or 3 h prior to virus addition, read-out: inhibition of plaque formation): 28%
- HUMAN VIRUSES shown to be susceptible [3]: Respiratory Syncytial Virus; also recorded: Cytomegalovirus; also recorded: Influenza A; also recorded: HIV-1; also recorded: Herpes Simplex-1 & 2; also recorded: Varicella Zoster Virus; also recorded: Human Herpesvirus-6
- MURINE VIRUSES shown to be susceptible [3]: Cytomegalovirus; also recorded: Friend Leukemic Virus; also recorded: LP-BM5 Virus
- activity against replication of Friend Virus [4]: very potent activity
- maximal observed inhibition in comparison to untreated cells [5]: approximately 75%
- reduction in the expression of β-galactosidase [5]: ≤ 80%
- inhibition at 30000 µM ([5]; read-out: inhibition of color production compared to Tetronic 908-treated cells): 55%
- inhibition at 30000 µM ([5]; read-out: inhibition of color production compared to untreated cells): 40%
- inhibition of plaque formation [6]: inhibit plaque formation by wild type HSV-2 equally
- water solubility [7]: water-insoluble
- inhibition of [3H]HSV-I binding [8]: bound normal levels

— patent publication US20040033982A1, “Viral inhibition by n-docosanol” (priority 2001, published 2004)
